Assay results as given in PubChem BioAssay (NCI).
Values joined by “and” are separate entries in the source; they are usually repeats but may differ in a detail not shown here. Equal entries are not always repeated.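 96-well plates; 48 h exposure; 5 concentrations. Endpoints by linear interpolation between flanking doses. Not reached: highest tested concentration assigned. GI50 marks 50% less growth. At the TGI there is no net growth.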

Experiments:
Assay in all cases: inhibition of tumour cell growth, NCI panel, 48 h
UO-31 renal = tested on: UO-31 renal
COLO 205 colon = tested on: COLO 205 colon
CAKI-1 renal = tested on: CAKI-1 renal
NCI-H23 lung = tested on: NCI-H23 lung
SK-OV-3 ovarian = tested on: SK-OV-3 ovarian
NCI-H226 lung = tested on: NCI-H226 lung
HOP-92 NSCLC = tested on: HOP-92 NSCLC
HOP-62 NSCLC = tested on: HOP-62 NSCLC
BT-549 breast = tested on: BT-549 breast
M14 melanoma = tested on: M14 melanoma

Compound | GI50 (UO-31 renal) | TGI (UO-31 renal) | GI50 (COLO 205 colon) | TGI (COLO 205 colon) | GI50 (CAKI-1 renal) | TGI (CAKI-1 renal) | GI50 (NCI-H23 lung) | TGI (NCI-H23 lung) | GI50 (SK-OV-3 ovarian) | TGI (SK-OV-3 ovarian) | GI50 (NCI-H226 lung) [nM] | TGI (NCI-H226 lung) [µM] | GI50 (HOP-92 NSCLC) | TGI (HOP-92 NSCLC) | GI50 (HOP-62 NSCLC) | TGI (HOP-62 NSCLC) [µM] | GI50 (BT-549 breast) | TGI (BT-549 breast) | GI50 (M14 melanoma) | TGI (M14 melanoma)
O=C(Nc1ccc(-c2nc3cc4ccccc4cc3[nH]2)cc1)c1cccc(Br)c1 | 17600 nM | 36.1 µM | 8870 nM | 40 µM | 27500 nM | 74.8 µM | 19.2 µM | 50.3 µM | 16.3 µM | 32.8 µM | 21400 | 50.2 | 4000 nM | 17.8 µM | 7280 nM | 20.4 | 12600 nM | 28.5 µM | 7590 nM | 24.8 µM
Nc1c(C(=O)Nc2ccccc2)sc2nc3c(cc12)CCCCCC3 | 945 nM | 11.9 µM | 307 nM | 1.48 µM | 526 nM | 16 µM | 0.65 µM | 16.4 µM | 0.465 µM | 3 µM | 652 | 12.7 | 523 nM | 5.1 µM | 648 nM | 6.97 | 286 nM | 4.05 µM | 233 nM | 3.15 µM
Cc1ccc(NC(c2ccccc2)c2ccc3cccnc3c2O)cc1 (centres undefined) |  | 16 µM |  | 16.5 µM |  | 16.4 µM |  | 19.2 µM |  | 23.8 µM |  | 8.4 |  | 16 µM |  | 19.9 |  | 15.3 µM |  | 19 µM
O=C1/C(=C/c2cccc([N+](=O)[O-])c2)COc2ccc(O)c(O)c21 | 1070 nM | 2.29 µM | 1790 nM | 3.74 µM | 1270 nM | 2.59 µM | 1.75 µM | 3.95 µM | 3.41 µM | 12.6 µM | 2350 | 8.33 | 2240 nM | 8.22 µM | 1930 nM | 4.62 | 2420 nM | 4.84 µM | 1810 nM | 4.27 µM
COc1cc2oc(=O)cc(C)c2cc1[N+](=O)[O-] |  | > 87.6 µM |  | > 60.6 µM |  | > 51.5 µM |  | 51.5 µM |  | > 100 µM |  | 26.9 |  | 57.1 µM |  | > 100 |  | 35.9 µM |  | 37.9 µM
C[Si](C)(C)C#CCO[Si](C)(C)C |  | > 100 µM |  | > 100 µM |  | > 100 µM |  | > 100 µM |  | > 100 µM |  | > 100 |  | 44.3 µM |  | > 100 |  | > 100 µM |  | > 100 µM
Cc1cc2c(c3c1c1ccccc1n3C)C(=O)C=CC2=O |  | 36.5 µM |  | > 100 µM |  | > 70.2 µM |  | 31 µM |  | > 100 µM |  | > 100 |  | 31.4 µM |  | > 100 |  | 31.4 µM |  | 88 µM
CNc1ccccc1C(=O)N/N=C/C=C/c1ccccc1 | 8080 nM | 97.9 µM | 671 nM | 10.3 µM | 2790 nM | > 100 µM | 7.93 µM | > 100 µM | 4.15 µM | > 100 µM | 10000 | > 100 | 4130 nM | 57.9 µM | 6900 nM | > 61.6 | 53200 nM | > 100 µM | 600 nM | 24.8 µM
C=C1C(=O)O[C@H]2[C@H]1CC/C(COC(=O)C(=O)c1c[nH]c3ccccc13)=C\CC[C@@]1(C)O[C@@H]21 | 1840 nM | 3.58 µM | 1800 nM | 3.91 µM | 2970 nM | 13.5 µM | 3.92 µM | 16 µM | 11.9 µM | 24.6 µM | 1980 | 3.89 | 2040 nM | 4.49 µM | 1720 nM | 4 | 2080 nM | 5.22 µM | 2000 nM | 5.19 µM
CC(C)C[C@@H](NC(=O)[C@@H](Cc1ccccc1)NC(=O)c1cnccn1)B1O[C@H]2[C@H](O)[C@@H](C(=O)NCCCC[C@@H]3NC(=O)[C@@H](Cc4ccccc4)NC(=O)[C@H](CC(=O)O)NC(=O)CNC(=O)[C@H](CCCN=C(N)N)NC3=O)O[C@@H](CN)[C@H]2O1 | 8.68 nM and 5 nM | 0.089 µM and 0.036 µM | 26.2 nM and 5 nM | 0.373 µM and 0.119 µM | 7.68 nM and 14.8 nM | 0.0525 µM and 0.0905 µM | 0.0108 µM and 0.005 µM | 0.0943 µM and 0.0537 µM | 0.0354 µM and 0.0148 µM | 0.296 µM and 0.941 µM | 2.78 | 0.0077 | 10.8 nM and 5.48 nM | 0.0565 µM and 0.0236 µM | 12.5 nM and 18.9 nM |  | 3 nM and 5 nM | 0.0112 µM and 0.0113 µM | 3.92 nM and 5 nM | 0.116 µM and 0.0141 µM
O=C(Nc1ccc(S(=O)(=O)Nc2nccs2)cc1)c1cccnc1Nc1cccc(Cl)c1 | 13800 nM | 32.3 µM | 18000 nM | 33.2 µM | 17000 nM | 52.2 µM | 12.9 µM | 28.5 µM | 20.8 µM | 58.8 µM | 21900 | 98.7 | 11200 nM | 36.5 µM | 16200 nM | 31.3 | 16000 nM | 39.3 µM | 15700 nM | 34.9 µM
CCN1C(=O)C/C(=C\C(C)=O)Nc2ccccc21 |  | > 100 µM |  | > 100 µM |  | > 100 µM |  | > 100 µM |  | > 100 µM |  | > 100 |  | > 100 µM |  | > 100 | > 100000 nM | > 100 µM |  | > 100 µM
COc1cccc(-c2nn(-c3ccccc3)cc2-c2ccnc(NCCNS(=O)(=O)c3ccc(Cl)cc3)c2)c1 | 2900 nM | > 100 µM | 3330 nM | 14.7 µM | 5610 nM | > 100 µM | 4.32 µM | > 100 µM | 4.43 µM | > 100 µM | 7210 | > 100 | 2460 nM | 9.48 µM | 13500 nM | > 100 | 4070 nM | > 100 µM | 4150 nM | > 100 µM
COc1ccc(C(=O)Cn2c(C(=O)c3ccc(Cl)cc3)nc3ccccc32)cc1 | > 51200 nM | > 100 µM | 37500 nM | > 100 µM | > 100000 nM | > 100 µM | > 57.9 µM | > 100 µM | 23.6 µM | > 100 µM | > 100000 | > 100 | > 100000 nM | > 100 µM |  | > 34.6 | > 38700 nM | > 100 µM | 3690 nM | > 39.3 µM
Oc1c(CN2CCC(N3CCOCC3)CC2)cc(Cc2cc(CN3CCC(N4CCOCC4)CC3)c(O)c3ncccc23)c2cccnc12 | 366 nM | 4.48 µM | 596 nM | 10.6 µM | 643 nM | 21.2 µM | 2.07 µM | > 100 µM | 0.758 µM | 8.96 µM | 641 | 4.75 | 4160 nM | 36.6 µM | 356 nM | 18.4 | 1200 nM | 29 µM | 610 nM | 17.1 µM
O=[N+]([O-])c1ccc(N2CCN(Cc3ccccc3)CC2)c2c1no[n+]2[O-] | 1280 nM | 2.59 µM | 1480 nM | 3.04 µM | 1420 nM | 3.48 µM | 1.98 µM | 5.68 µM | 1.98 µM | 4.89 µM | 1570 | 3.46 | 1070 nM | 2.36 µM | 1220 nM | 2.77 | 1930 nM | 3.78 µM | 1800 nM | 3.52 µM
O=C(/C=C/c1ccco1)c1ccc(Nc2nc(Nc3ccc(F)cc3)nc(Nc3ccc(Cl)cc3)n2)cc1 | > 60800 nM | > 100 µM | 12100 nM | > 100 µM | 19200 nM | > 54 µM | 17.9 µM | > 63.4 µM | 26.6 µM | > 56.2 µM | > 35400 | > 82.2 | 2690 nM | > 45.4 µM | > 50000 nM | > 87.1 | 2230 nM | > 29.6 µM | 13500 nM | 56.9 µM
